# According to patent US11178869B2, “Microbiocidal quinoline (thio)carboxamide derivatives” (priority 2017, dated 2021):
# Legend:
# Pyrenophora teres = Pyrenophora teres / barley / leaf disc preventative (net blotch); type: in vivo, Pyrenophora teres on barley leaf segments cv. Hasso; details: foliar, barley leaf segments, compared to untreated control, 5-7 days after application
# [1] = test system: Magnaporthe grisea (Pyricularia oryzae); assay: microbe, parasite or virus in culture; type: cell-based; details: read-out: control of Magnaporthe grisea
# [2] = test system: Monographella nivalis (Microdochium nivale); assay: Monographella nivalis (Microdochium nivale) / liquid culture (foot rot cereals); type: cell-based; details: 200 ppm, compared to untreated control, growth inhibition photometrically 4-5 days after application, read-out: disease control
# Fusarium culmorum [3] = assay: microbe, parasite or virus in culture; type: cell-based; details: read-out: disease control
# [4] = test system: Botryotinia fuckeliana (Botrytis cinerea); assay: Botryotinia fuckeliana (Botrytis cinerea) / liquid culture (gray mould); type: cell-based; details: 72 h, 200 ppm, compared to untreated control, growth inhibition photometrically 3-4 days after application, read-out: disease control
# [5] = test system: Glomerella lagenarium (Colletotrichum lagenarium); assay: Glomerella lagenarium (Colletotrichum lagenarium) / liquid culture (anthracnose); type: cell-based; details: Colletotrichum orbiculare; 200 ppm; compared to untreated control; growth inhibition photometrically 3-4 days after application; read-out: disease control
# Gaeumannomyces graminis = Gaeumannomyces graminis / liquid culture (take-all of cereals); type: cell-based; details: compared to untreated control, 4-5 days after application
# Sclerotinia sclerotiorum = Sclerotinia sclerotiorum / liquid culture (cottony rot); details: read-out: control of Sclerotinia sclerotiorum
# Experimental: Sclerotinia sclerotiorum/Liquid Culture (Cottony Rot)
# Mycelia fragments of a newly grown liquid culture of the fungus are directly mixed into nutrient broth (Vogels broth). After placing a (DMSO) solution of test compound into a microtiter plate (96-well format) the nutrient broth containing the fungal material is added. The test plates are incubated at 24° C. and the inhibition of growth is determined photometrically 3-4 days after application.
# Fusarium culmorum [6] = assay: whole plant or invertebrate; type: in vivo, Fusarium culmorum on wheat spikelets cv. Monsun; details: in Triticum aestivum, 144 h, read-out: control of Fusarium culmorum
Structure (SMILES),pest or weed control at 200 ppm (Pyrenophora teres) [%],inhibition of growth at 20 ppm [1] [%],inhibition of growth at 200 ppm [2] [%],inhibition of growth at 200 ppm (Fusarium culmorum [3]) [%],inhibition of growth at 200 ppm [4] [%],melting point [°C],inhibition of growth at 200 ppm [5] [%],inhibition of growth at 20 ppm (Gaeumannomyces graminis) [%],inhibition of growth at 20 ppm (Sclerotinia sclerotiorum) [%],pest or weed control at 200 ppm (Fusarium culmorum [6]) [%]
"Cc1cccc2cc(C(=O)NC(C#Cc3ccccc3)C(C)C)cnc12 (stereo not shown) [Compound F-1, N-(1-isopropyl-3-phenyl-prop-2-ynyl)-8-methyl-quinoline-3-carboxamide]",≥ 80,≥ 80,≥ 80,≥ 80,≥ 80,,,,,
"CC(C)C(C#Cc1ccccc1)NC(=O)c1cnc2c(Cl)cccc2c1 (stereo not shown) [Compound F-2, 8-chloro-N-(1-isopropyl-3-phenyl-prop-2-ynyl)quinoline-3-carboxamide]",≥ 80,,≥ 80,≥ 80,,168 to 170,,,,
"CC(C)(C)C(C#Cc1ccccc1)NC(=O)c1cnc2c(F)cccc2c1 (stereo not shown) [Compound F-5, N-(1-tert-butyl-3-phenyl-prop-2-ynyl)-8-fluoro-quinoline-3-carboxamide]",,≥ 80,≥ 80,≥ 80,≥ 80,179 to 181,≥ 80,≥ 80,≥ 80,
"CC(C)CC(C)(C#Cc1ccccc1)NC(=O)c1cnc2c(F)cccc2c1 (stereo not shown) [Compound F-7, N-[1,3-dimethyl-1-(2-phenylethynyl)butyl]-8-fluoro-quinoline-3-carboxamide]",,≥ 80,≥ 80,≥ 80,≥ 80,138 to 141,≥ 80,≥ 80,≥ 80,≥ 80
"CCC(C)(C#Cc1ccccc1)NC(=O)c1cnc2c(C)cccc2c1 (stereo not shown) [Compound F-9, N-(1-ethyl-1-methyl-3-phenyl-prop-2-ynyl)-8-methyl-quinoline-3-carboxamide]",,≥ 80,≥ 80,≥ 80,≥ 80,135 to 137,≥ 80,,≥ 80,≥ 80
"CCC(C)(C#Cc1ccccc1)NC(=O)c1cnc2c(C#N)cccc2c1 (stereo not shown) [Compound F-10, 8-cyano-N-(1-ethyl-1-methyl-3-phenyl-prop-2-ynyl)quinoline-3-carboxamide]",,≥ 80,≥ 80,≥ 80,≥ 80,172 to 174,≥ 80,≥ 80,≥ 80,≥ 80
"CCC(C)(C#Cc1ccccc1)NC(=O)c1cnc2c(Cl)cccc2c1 (stereo not shown) [Compound F-11, 8-chloro-N-(1-ethyl-1-methyl-3-phenyl-prop-2-ynyl)quinoline-3-carboxamide]",≥ 80,≥ 80,≥ 80,≥ 80,≥ 80,161 to 162,≥ 80,,≥ 80,≥ 80
"CCC(C)(C#Cc1ccccc1)NC(=O)c1cnc2c(F)cccc2c1 (stereo not shown) [Compound F-17, N-(1-ethyl-1-methyl-3-phenyl-prop-2-ynyl)-8-fluoro-quinoline-3-carboxamide]",≥ 80,≥ 80,≥ 80,≥ 80,≥ 80,129 to 132,≥ 80,,,≥ 80
"Cc1ccc(C#CC(C)(C)NC(=O)c2cnc3c(F)cccc3c2)cc1 [Compound F-21, N-[1,1-dimethyl-3-(p-tolyl)prop-2-ynyl]-8-fluoro-quinoline-3-carboxamide]",≥ 80,,≥ 80,≥ 80,≥ 80,,≥ 80,,,
"COc1cccc(C#CC(C)(C)NC(=O)c2cnc3c(F)cccc3c2)c1 [Compound F-29, 8-fluoro-N-[3-(3-methoxyphenyl)-1,1-dimethyl-prop-2-ynyl]quinoline-3-carboxamide]",≥ 80,,≥ 80,≥ 80,≥ 80,,≥ 80,,,≥ 80
"Cc1ccc(C#CC(C)(C)NC(=O)c2cnc3c(F)cccc3c2)s1 [Compound F-35, N-[1,1-dimethyl-3-(5-methyl-2-thienyl)prop-2-ynyl]-8-fluoro-quinoline-3-carboxamide]",≥ 80,,≥ 80,≥ 80,≥ 80,,,,,
"CC(C)(C#Cc1ccccc1)NC(=O)c1cnc2c(F)cccc2c1 [Compound F-55, N-(1,1-dimethyl-3-phenyl-prop-2-ynyl)-8-fluoro-quinoline-3-carboxamide]",≥ 80,,≥ 80,≥ 80,≥ 80,151 to 155,≥ 80,≥ 80,,
"CC(C)C[C@@H](C#Cc1ccccc1)NC(=O)c1cnc2c(F)cccc2c1 [Compound G-4, 8-fluoro-N-[(1S)-3-methyl-1-(2-phenylethynyl)butyl]quinoline-3-carboxamide]",≥ 80,≥ 80,,≥ 80,≥ 80,,≥ 80,≥ 80,,≥ 80
"CC(C)C[C@@](C)(C#Cc1ccccc1)NC(=O)c1cnc2c(F)cccc2c1 [Compound G-5, N-[(1S)-1,3-dimethyl-1-(2-phenylethynyl)butyl]-8-fluoro-quinoline-3-carboxamide]",,≥ 80,≥ 80,≥ 80,≥ 80,124 to 127,≥ 80,≥ 80,≥ 80,
